According to ChEMBL document CHEMBL5370531, “Design, synthesis and pharmacological evaluation of 2,3-dihydrobenzofuran IRAK4 inhibitors for the treatment of diffuse large B-cell lymphoma” (Eur J Med Chem, 2023):

Columns and labels:
[1] = test system: OCI-Ly10; assay: Induction of apoptosis in human OCILY10 cells harboring MYD88 L265P assessed as early apoptotic cells at 0.1 uM incubated for 48 hrs in presence of BTK inhibitor, ibrutinib by Annexin V-FITC/PI staining based flow cytometry (reference value: 6.76 %); assay type: functional
[2] = test system: OCI-Ly10; assay: Induction of apoptosis in human OCILY10 cells assessed as early apoptotic cells at 1 uM incubated for 48 hrs by Annexin V-FITC/PI staining based flow cytometry (reference value: 5.4 %); assay type: functional

## Cn1cc(-c2cc3c(cc2NC(=O)c2coc(-c4ccnc(N)c4)n2)CC(C)(C)O3)cn1
[1]
  Activity: 14.2%
[2]
  Activity: 54.4%
